Structures can show the parent of a compound that is named as a salt. Where two headings read alike, the source gives them in different places.
How the values were obtained:
[1] = Rat pharmacokinetic study; assay type: in vivo; settings: rats; for bioavailability: intravenous 1-2 mg/kg, oral 2-40 mg/kg
Experimental: In the rat pharmacokinetic study, a group of rats (three rats) were injected intravenously with 1-2 mg/kg, and the second group of rats (three rats) were orally administered 2-40 mg/kg at 7 time points (0.25, 0.5, 1, 2, 4, 8, 16 hours) of the quinazoline derivative (I) of the present invention. Take blood to measure the concentration of the quinazoline derivative (I) of the present invention in the blood, and calculate the peak area and half-life. The calculation method of bioavailability is: (peak area of drug oral/oral dose)/(peak area of drug intravenous injection/intravenous dose)×100%.

[2] = test system: Glioma PDX with EGFRVIII mutation; experiment: CellTiter-Glo cell viability, glioma tumor cells; assay type: cell-based
Experimental: (§1) Add 100 microliters of CellTiter-Glo reagent to each well and mix on an orbital shaker for 2 minutes to induce cell lysis. The plate was incubated at room temperature for 10 minutes to stabilize the luminescence signal. The luminescence signal was recorded on the TECAN Infinite M1000 Pro instrument.

[3] = biological target: EGFR enzyme (Homo sapiens, UniProt P00533); experiment: EGFR enzyme inhibition mechanism (ADP-Glo, ATP titration); assay type: biochemical; settings: ATP diluted from 600 uM, EGFR 0.4 nM to 0.0125 nM; FIG. 24
Experimental: In the experiment of the quinazoline derivative (I) of the present invention on the mechanism of inhibiting EGFR, the EGFR enzyme was added to the 384-well plate from 6 concentrations diluted in equal proportions (2 times) of 0.4 nM to 0.0125 nM and 0 concentration in polyE4Y1 solution, incubate for 15 minutes, add 7 concentrations of ATP diluted from 600 uM in equal proportions (2 times) to react for 60 minutes, add ADP-Glo reagent and detection reagent for 40 minutes to measure RLU signal. […] The benefits of this mechanism of action are obvious. The quinazoline derivative (I) of the present invention has this mechanism of action, showing high activity and high selectivity, and has the characteristics of small side effects and resistance to drug resistance.

[4] = Equilibrium solubility in water; assay type: physicochemical; settings: room temperature, 24 hours, listed as quinazoline derivative (I) free base
Experimental: Experimental method: Weigh about 10 mg of solid sample (free base and various salt forms and crystal forms), add 1.5 mL of water, and after equilibrate at room temperature for 24 hours, take out 0.3 mL of turbid solution, and centrifuge to separate the lower solid and supernatant. After the supernatant was filtered through a 0.45 μm (PTFE) filter, the concentration of free alkali was tested.

[5] = biological target: T1, Breast cancer resistance protein (BCRP) (Homo sapiens, UniProt Q9UNQ0); experiment: BCRP efflux substrate; assay type: in vitro ADME
T1 sequence (Q9UNQ0 1-655): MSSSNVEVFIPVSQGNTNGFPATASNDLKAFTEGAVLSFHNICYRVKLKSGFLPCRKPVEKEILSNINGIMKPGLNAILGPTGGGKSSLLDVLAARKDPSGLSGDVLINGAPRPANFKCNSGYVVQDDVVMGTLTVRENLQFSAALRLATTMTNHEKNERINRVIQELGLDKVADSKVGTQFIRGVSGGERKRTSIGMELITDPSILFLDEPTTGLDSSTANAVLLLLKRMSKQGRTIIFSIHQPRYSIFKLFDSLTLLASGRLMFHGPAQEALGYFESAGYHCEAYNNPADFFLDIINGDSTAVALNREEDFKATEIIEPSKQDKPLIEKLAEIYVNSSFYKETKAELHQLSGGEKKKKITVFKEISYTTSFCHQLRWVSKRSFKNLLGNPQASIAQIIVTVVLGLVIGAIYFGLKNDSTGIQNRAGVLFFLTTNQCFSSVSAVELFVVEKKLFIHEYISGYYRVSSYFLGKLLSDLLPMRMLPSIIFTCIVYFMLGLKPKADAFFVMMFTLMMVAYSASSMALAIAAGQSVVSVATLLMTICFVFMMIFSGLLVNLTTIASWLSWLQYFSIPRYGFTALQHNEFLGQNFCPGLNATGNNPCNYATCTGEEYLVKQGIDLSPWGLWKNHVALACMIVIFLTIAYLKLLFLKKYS

[6] = test system: PC-9 tumor cell (EGFR Del 19 mutation); experiment: CellTiter-Glo cell viability, PC-9 tumor cells; assay type: cell-based; settings: 72 hours, read-out: Inhibition of growth of PC-9 tumor cell (EGFR Del 19 mutation), IC50
Experimental: as §1

[7] = Blood-brain barrier penetration in rats; assay type: in vivo, rat; settings: oral, four hours after administration
Experimental: To determine whether the quinazoline derivative (I) can cross the blood-brain barrier (BBB), the test compound was administered to rats orally. Four hours after the administration, the rats were killed, blood and brain tissue were collected, and the concentration of the test compound was analyzed. Brain penetration is defined as the ratio of the concentration of the compound in brain tissue to the concentration in plasma. Crossing the blood-brain barrier is the ratio of the free concentration of the drug in the brain tissue to the free concentration of the drug in the plasma. P-glycoprotein is an efflux protein of the blood-brain barrier, which discharges the P-glycoprotein substrate […]. Breast cancer resistance protein is an efflux protein from the blood-brain barrier, which excretes […].

[8] = biological target: P-glycoprotein (Homo sapiens, UniProt P08183); experiment: P-gp efflux substrate; assay type: in vitro ADME
Sequence of P-glycoprotein (P08183 whole entry): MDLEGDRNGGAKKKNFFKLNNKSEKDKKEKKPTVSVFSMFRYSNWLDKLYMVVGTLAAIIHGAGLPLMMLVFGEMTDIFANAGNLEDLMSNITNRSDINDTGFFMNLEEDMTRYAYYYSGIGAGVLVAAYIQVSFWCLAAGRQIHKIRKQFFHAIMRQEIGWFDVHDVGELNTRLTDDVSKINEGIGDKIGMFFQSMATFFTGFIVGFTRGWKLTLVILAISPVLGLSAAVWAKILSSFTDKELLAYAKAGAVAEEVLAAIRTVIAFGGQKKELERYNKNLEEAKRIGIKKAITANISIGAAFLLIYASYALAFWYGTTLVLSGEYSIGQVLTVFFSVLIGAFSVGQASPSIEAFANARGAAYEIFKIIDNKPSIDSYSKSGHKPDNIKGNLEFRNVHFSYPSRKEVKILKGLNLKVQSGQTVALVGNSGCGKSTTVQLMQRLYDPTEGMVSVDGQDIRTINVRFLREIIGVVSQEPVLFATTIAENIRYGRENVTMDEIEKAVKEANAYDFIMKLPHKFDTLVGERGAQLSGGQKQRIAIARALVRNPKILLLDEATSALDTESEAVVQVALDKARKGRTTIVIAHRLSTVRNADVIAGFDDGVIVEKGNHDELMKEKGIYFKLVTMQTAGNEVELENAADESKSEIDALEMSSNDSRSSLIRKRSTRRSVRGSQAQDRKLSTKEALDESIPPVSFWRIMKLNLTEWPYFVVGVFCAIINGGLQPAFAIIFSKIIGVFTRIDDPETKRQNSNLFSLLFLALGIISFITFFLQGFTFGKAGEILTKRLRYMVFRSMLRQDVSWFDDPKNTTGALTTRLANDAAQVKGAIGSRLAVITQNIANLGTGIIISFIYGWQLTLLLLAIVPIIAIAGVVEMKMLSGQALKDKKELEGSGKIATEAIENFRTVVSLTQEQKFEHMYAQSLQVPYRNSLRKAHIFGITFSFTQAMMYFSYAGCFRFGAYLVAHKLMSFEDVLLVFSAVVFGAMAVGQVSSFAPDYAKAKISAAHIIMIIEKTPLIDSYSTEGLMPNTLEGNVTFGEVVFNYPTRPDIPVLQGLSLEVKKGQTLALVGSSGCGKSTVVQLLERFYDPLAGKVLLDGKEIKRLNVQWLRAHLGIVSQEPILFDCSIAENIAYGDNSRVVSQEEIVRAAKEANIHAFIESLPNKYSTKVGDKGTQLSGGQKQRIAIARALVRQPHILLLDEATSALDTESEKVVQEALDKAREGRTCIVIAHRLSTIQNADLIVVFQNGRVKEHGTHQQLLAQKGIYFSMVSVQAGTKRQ

[9] = biological target: EGFRV3 (EGFRVIII) (Homo sapiens, UniProt P00533, DELINS30-297G); experiment: Western blot of […] phosphorylation; assay type: cell-based; settings: FIG. 21
Text: FIG. 21 is a schematic diagram of the inhibition of […] phosphorylation by quinazoline derivatives of the present invention;
It can be seen from Table 22 that the quinazoline derivative (I) with the configuration of R according to the present invention has unexpected […] mutation activity, which is >100 times higher activity than the enantiomer activity while has similar biological activity for EGFR Del 19 activating mutation.

[10] = test system: patient primary brain tumor tissue with EGFRVIII mutation; experiment: Subcutaneous PDX mouse model of glioma with […] mutation; assay type: in vivo; settings: orally, twice a day, three weeks
Experimental: The patient's primary tumor tissue (brain tumor) was implanted under the skin of the mouse, and the tumor grew to about 150 cubic millimeters, and the medication was started for three weeks. […] The second group of quinazoline derivatives (I) single agent, 3 mg/kg, orally, twice a day, the third group of quinazoline derivatives (I) single agent, 10 mg/kg, orally, two times a day, the fourth group of quinazoline derivatives (I) is a single agent, 20 mg/kg, orally, twice a day.

[11] = TGA/DSC behaviour during heating; assay type: physicochemical; settings: heating process; for weight loss during heating (TGA): FIG. 23A; for stability of crystal form during heating (DSC): FIG. 23B
[12] = listed as quinazoline derivatives (I)
[13] = listed as quinazoline derivative fumarate salt

**Q.** For `C#Cc1cccc(Nc2ncnc3cc(OC)c(O[C@@H]4CCN(C)CC4(F)F)cc23)c1F` [Hydrochloride crystal form B, (R)-6-[(3,3-difluoro-1-methylpiperidin-4-yl)oxy]-N-(3-Ethynyl-2-fluorophenyl)-7-methoxyquinazolin-4-amine], which bioavailability ([1]; rat, blood, po, read-out: bioavailability) is on record?
**A.** > 60%

**Q.** Which “EGFRVIII mutation activity relative to the enantiomer” value ([2]; R configuration vs S enantiomer) does the source give for `C#Cc1cccc(Nc2ncnc3cc(OC)c(O[C@@H]4CCN(C)CC4(F)F)cc23)c1F` [quinazoline derivative (I), (R)-6-[(3,3-difluoro-1-methylpiperidin-4-yl)oxy]-N-(3-Ethynyl-2-fluorophenyl)-7-methoxyquinazolin-4-amine] here?
**A.** > 100 times

**Q.** What about the IC50 ([2]; read-out: Inhibition of growth of Glioma PDX with EGFRVIII mutation, IC50, 72 hours, CellTiter-Glo) of the same compound?
**A.** 10 nM

**Q.** And the “mechanism of inhibiting EGFR” value [3]?
**A.** non-ATP competition mechanism

**Q.** And the “equilibrium solubility in water” value [4]?
**A.** <5 µg/mL

**Q.** What about the BCRP efflux substrate [5] of the same compound?
**A.** not a P-glycoprotein or BCRP substrate

**Q.** And the BCRP efflux substrate [5, 12]?
**A.** no

**Q.** What about the IC50 [6] of the same compound?
**A.** 8 nM

**Q.** And the “Blood brain barrier penetration rate (free concentration in brain tissue / free concentration in plasma)” value [7, 12]?
**A.** >50%

**Q.** And the Kp at 4 h ([7]; rat, brain tissue / plasma (free concentrations), read-out: Blood brain barrier penetration rate (free concentration in brain tissue / free concentration in plasma))?
**A.** > 0.5

**Q.** And the P-gp efflux substrate [8]?
**A.** not a P-glycoprotein or BCRP substrate

**Q.** And the P-gp efflux substrate [8, 12]?
**A.** no

**Q.** What about the “phosphorylation of EGFRV3” value [9] of the same compound?
**A.** inhibited

**Q.** And the tumor reduction ([10]; 20 mg/kg)?
**A.** caused tumor reduction

**Q.** What about the “inhibition of tumor growth vs control group” value ([10]; 3, 10 and 20 mg/kg, FIG. 22) of the same compound?
**A.** good inhibition of tumor growth

**Q.** With `C#Cc1cccc(Nc2ncnc3cc(OC)c(O[C@@H]4CCN(C)CC4(F)F)cc23)c1F` [fumarate crystal form A, (R)-6-[(3,3-difluoro-1-methylpiperidin-4-yl)oxy]-N-(3-Ethynyl-2-fluorophenyl)-7-methoxyquinazolin-4-amine] as the compound, how does the half-life ([1]; rat, blood) read?
**A.** 444 min

**Q.** What about the bioavailability [1] of the same compound?
**A.** 80%

**Q.** What about the “weight loss during heating (TGA)” value [11] of the same compound?
**A.** no significant weight loss

**Q.** And the “weight loss during heating (TGA)” value [11, 13]?
**A.** without significant weight loss

**Q.** And the “stability of crystal form during heating (DSC)” value [11]?
**A.** good stability

**Q.** What about the “stability of crystal form during heating (DSC)” value [11, 13] of the same compound?
**A.** the crystal form is stable during heating

— patent US20250282752A1, “Quinazoline Derivative Salt Crystal Form, Preparation Method and Application” (WEISHANG (SHANGHAI) BIO-PHARMACEUTICAL CO., LTD., priority 2018, published 2025)
